Data taken from patent publication US20240124434A1, “ATF6 INHIBITORS AND USES THEREOF” (Altos Labs, Inc., priority 2018, published 2024).
Converted amounts (≈) assume the structure as drawn.

Tests used:
[1] = Kinetic solubility (nephelometry); type: physicochemical; conditions: aqueous buffer, kinetic from dmso stock; PBS pH 7.4, 1% DMSO, 1 hour at 37° C., light scattering at 625 nm
Protocol: Concentration (μM) was then calculated by segmental regression. Amiodarone (#A8423 Aldrich) was used as positive control.

[2] = In vitro microsomal stability, human liver microsomes; type: in vitro ADME; conditions: for microsomal CLint at […], 1 µM: intrinsic clearance, read-out: Clint @ hLM; for Rem. @ hLM (%): remaining fraction after 30 min, 1 μM compound, 0.5 mg/mL human liver microsomes, 1 mM NADPH
Protocol: (§1) Compounds were incubated at a final concentration of 1 μM with 0.5 mg/mL human liver microsomes (hLM) (#HMMCPL; Thermo), mouse liver microsomes (mLM) (#MSMCPL; Thermo) or rat liver microsomes (rLM) (#RTMCPL; Thermo) and 1 mM reduced dihydronicotinamide-adenine dinucleotide phosphate (NADPH) (#N1630; Sigma) in 100 mM phosphate buffer (pH 7.4) at 37° C. The reactions were terminated at 0, 5, 15 and 30 min by the addition of cold acetonitrile containing 50 ng/mL propranolol as an internal standard. […] Verapamil hydrochloride (#V4369 Aldrich) was used as a positive control in all studies.

[3] = tested on: ATF6; assay: ERSE ATF6-luciferase reporter assay (thapsigargin-induced ER stress); type: cell-based, human; conditions: Homo sapiens, U2OS, thapsigargin-induced ER stress, U2-OS ATF6 luc reporter cells; for inhibition at 1 µM: 8 h, read-out: Inh. ATF6-Luc @ 1 μM [%], 1 μM test compound, 8 hr; for IC50: read-out: IC50 ATF6-Luc reporter [μM], dose-response 30 μM to 1 nM
[4] = In vitro microsomal stability, rat liver microsomes; type: in vitro ADME; conditions: for microsomal CLint at […], 1 µM: intrinsic clearance, read-out: Clint @ rLM; for Rem. @ rLM (%): remaining fraction after 30 min, 1 μM compound, 0.5 mg/mL rat liver microsomes, 1 mM NADPH
Protocol: as §1

[5] = In vitro microsomal stability, mouse liver microsomes; type: in vitro ADME; conditions: for microsomal CLint at […], 1 µM: intrinsic clearance, read-out: Clint @ mLM; for Rem. @ mLM (%): remaining fraction after 30 min, 1 μM compound, 0.5 mg/mL mouse liver microsomes, 1 mM NADPH
Protocol: as §1

[6] = biological target: CYP2C19 (Homo sapiens (Human), UniProt P33261); assay: CYP inhibition in human liver microsomes; conditions: read-out: CYP-2C19; human liver microsomes; probe substrate mephenytoin
Chain of CYP2C19 (P33261 whole entry, canonical isoform): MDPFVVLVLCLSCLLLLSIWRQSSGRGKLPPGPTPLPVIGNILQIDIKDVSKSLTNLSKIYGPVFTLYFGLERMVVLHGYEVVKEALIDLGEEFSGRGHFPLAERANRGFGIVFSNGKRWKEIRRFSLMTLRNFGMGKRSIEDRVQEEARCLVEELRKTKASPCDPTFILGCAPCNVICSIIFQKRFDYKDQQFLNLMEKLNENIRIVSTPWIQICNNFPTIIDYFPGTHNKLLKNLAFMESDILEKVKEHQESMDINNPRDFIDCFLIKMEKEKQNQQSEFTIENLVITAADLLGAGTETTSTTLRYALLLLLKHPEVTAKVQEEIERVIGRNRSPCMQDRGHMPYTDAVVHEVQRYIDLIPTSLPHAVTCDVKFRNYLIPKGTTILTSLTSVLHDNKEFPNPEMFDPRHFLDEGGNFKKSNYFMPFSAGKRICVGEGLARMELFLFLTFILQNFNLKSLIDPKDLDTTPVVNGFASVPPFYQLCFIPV
Protocol: (§2) CYP inhibition by test compounds in human liver microsomes (HLM) for seven major CYP450 isoforms CYP1A2, CYP2C9, CYP2D6, CYP2B6, CYP2C8, CYP2C19 and CYP3A4 were assessed. […] 50 μM phenacetin, 2 μM midazolam, 5 μM diclofenac, 50 μM mephenytoin, 80 μM bupropion, and 5 μM dextromethorphan were used as probe substrates of CYP1A2, CYP3A4, CYP2C9, CYP2C19, CYP2B6, and CYP2D6, respectively. The incubation times were 20 min for […], CYP2D6, CYP2C9, CYP2B6, and CYP2C8; 40 min for CYP2C19; and 10 min for CYP 3A4. Following incubations, the reactions were terminated with acetonitrile containing internal standard. The samples were centrifuged and the supernatants were analyzed for the formation of metabolites (1-hydroxymidazolam (CYP3A4), 4-hydroxydiclofenac (CYP2C9), 4-hydroxymephenytoin (CYP2C19) and dextrorphan (CYP2D6), hydroxybupropion (CYP2B6), acetaminophen (CYP1A2), desethylamodiaquine (CYP2C8)) by LC/MS/MS.

[7] = biological target: CYP2C8 (Homo sapiens (Human), UniProt P10632); assay: CYP inhibition in human liver microsomes; conditions: read-out: CYP-2C8, metabolite desethylamodiaquine
Chain of CYP2C8 (P10632 whole entry): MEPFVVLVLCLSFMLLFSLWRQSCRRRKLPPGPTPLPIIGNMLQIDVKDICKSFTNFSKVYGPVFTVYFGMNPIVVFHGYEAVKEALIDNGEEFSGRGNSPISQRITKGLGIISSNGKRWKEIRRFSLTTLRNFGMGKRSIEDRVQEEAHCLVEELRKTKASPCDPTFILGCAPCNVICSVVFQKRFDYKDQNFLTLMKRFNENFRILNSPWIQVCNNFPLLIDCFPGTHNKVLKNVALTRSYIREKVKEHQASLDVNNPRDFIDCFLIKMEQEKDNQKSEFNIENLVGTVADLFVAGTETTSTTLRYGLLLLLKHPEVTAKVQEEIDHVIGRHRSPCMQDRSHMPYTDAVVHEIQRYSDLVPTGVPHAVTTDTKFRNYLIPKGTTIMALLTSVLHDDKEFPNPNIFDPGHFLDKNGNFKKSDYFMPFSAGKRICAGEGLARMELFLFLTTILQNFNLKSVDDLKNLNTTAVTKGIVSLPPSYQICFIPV
Protocol: as §2

[8] = biological target: CYP2D6 (Homo sapiens (Human), UniProt P10635); assay: CYP inhibition in human liver microsomes; conditions: read-out: CYP-2D6; human liver microsomes; probe substrate dextromethorphan
Chain of CYP2D6 (P10635 whole entry): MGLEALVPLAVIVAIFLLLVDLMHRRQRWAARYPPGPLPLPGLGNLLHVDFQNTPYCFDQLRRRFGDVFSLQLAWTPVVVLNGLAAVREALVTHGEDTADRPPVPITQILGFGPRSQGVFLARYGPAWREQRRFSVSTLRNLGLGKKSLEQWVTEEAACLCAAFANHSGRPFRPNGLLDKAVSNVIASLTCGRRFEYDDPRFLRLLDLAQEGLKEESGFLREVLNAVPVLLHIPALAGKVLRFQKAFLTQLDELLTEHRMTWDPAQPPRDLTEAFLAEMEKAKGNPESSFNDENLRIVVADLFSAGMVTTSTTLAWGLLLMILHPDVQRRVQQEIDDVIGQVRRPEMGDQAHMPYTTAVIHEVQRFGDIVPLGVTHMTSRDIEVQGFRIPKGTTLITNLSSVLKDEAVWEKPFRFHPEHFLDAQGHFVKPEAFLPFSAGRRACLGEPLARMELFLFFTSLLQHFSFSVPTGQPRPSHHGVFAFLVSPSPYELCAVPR
Protocol: as §2

[9] = biological target: CYP3A4 (Homo sapiens (Human), UniProt P08684); assay: CYP inhibition in human liver microsomes; conditions: read-out: CYP-3A4; human liver microsomes; probe substrate midazolam
Chain of CYP3A4 (P08684 whole entry): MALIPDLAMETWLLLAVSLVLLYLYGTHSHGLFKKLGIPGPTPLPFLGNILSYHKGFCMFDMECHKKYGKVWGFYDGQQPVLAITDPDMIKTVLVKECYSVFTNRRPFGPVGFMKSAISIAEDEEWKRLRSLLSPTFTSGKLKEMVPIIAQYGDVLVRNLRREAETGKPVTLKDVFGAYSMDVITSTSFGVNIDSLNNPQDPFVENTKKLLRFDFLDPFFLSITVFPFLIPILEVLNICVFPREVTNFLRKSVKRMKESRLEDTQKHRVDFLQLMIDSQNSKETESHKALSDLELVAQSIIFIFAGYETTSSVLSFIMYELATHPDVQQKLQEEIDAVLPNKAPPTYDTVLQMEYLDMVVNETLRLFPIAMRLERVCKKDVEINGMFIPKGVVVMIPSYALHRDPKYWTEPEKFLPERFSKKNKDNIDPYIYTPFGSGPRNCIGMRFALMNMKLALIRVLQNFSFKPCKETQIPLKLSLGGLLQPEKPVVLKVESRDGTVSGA
Protocol: as §2

[10] = biological target: CYP2B6 (Homo sapiens (Human), UniProt P20813); assay: CYP inhibition in human liver microsomes; conditions: read-out: CYP-2B6; human liver microsomes; probe substrate bupropion
Chain of CYP2B6 (P20813 whole entry): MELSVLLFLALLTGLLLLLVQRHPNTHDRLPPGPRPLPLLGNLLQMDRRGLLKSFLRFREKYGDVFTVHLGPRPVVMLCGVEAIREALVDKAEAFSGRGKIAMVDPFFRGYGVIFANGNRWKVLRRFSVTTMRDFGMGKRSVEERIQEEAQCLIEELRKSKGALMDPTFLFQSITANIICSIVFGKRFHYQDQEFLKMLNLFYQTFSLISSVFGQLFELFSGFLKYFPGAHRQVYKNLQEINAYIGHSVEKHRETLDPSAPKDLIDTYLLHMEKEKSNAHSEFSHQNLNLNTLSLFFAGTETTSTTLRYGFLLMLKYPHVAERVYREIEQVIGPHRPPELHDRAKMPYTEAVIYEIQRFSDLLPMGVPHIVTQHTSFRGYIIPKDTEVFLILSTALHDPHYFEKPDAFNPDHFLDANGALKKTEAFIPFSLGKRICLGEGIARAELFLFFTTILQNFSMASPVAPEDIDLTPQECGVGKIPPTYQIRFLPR
Protocol: as §2

[11] = biological target: CYP2C9 (Homo sapiens (Human), UniProt P11712); assay: CYP inhibition in human liver microsomes; conditions: read-out: CYP-2C9; human liver microsomes; probe substrate diclofenac
Chain of CYP2C9 (P11712 whole entry): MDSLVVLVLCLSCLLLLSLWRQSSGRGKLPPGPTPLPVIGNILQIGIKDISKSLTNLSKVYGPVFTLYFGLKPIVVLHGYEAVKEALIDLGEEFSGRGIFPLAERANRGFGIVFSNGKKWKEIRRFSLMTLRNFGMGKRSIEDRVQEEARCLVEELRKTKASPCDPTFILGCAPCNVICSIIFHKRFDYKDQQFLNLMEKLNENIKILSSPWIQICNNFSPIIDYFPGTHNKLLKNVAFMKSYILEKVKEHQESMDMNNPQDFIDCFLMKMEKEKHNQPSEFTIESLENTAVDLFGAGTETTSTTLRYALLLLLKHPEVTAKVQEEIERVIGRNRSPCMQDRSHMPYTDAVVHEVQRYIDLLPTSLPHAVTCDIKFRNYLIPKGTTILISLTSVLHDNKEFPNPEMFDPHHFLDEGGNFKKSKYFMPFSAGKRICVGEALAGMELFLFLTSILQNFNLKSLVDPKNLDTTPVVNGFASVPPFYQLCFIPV
Protocol: as §2

[12] = in vivo; conditions: Balb/c, mouse, po, 10 mg/kg
[13] = mouse, in vivo, po, 10 mg/kg; for AUCExtr [%] / F [%] / Vz: Balb/c
[14] = human, human liver microsomes, pH 7.4, read-out: T1/2 @ hLM
[15] = rat, rat liver microsomes, pH 7.4, read-out: T1/2 @ rLM
[16] = mouse, mouse liver microsomes, pH 7.4, read-out: T1/2 @ mLM

Compound	solubility kinetic at 1 h [1] [µM]	half-life at […], 1 µM [2, 14] [min]	microsomal CLint at […], 1 µM ([2]; pH 7.4, human liver microsomes) [µL/min/mg]	Rem. @ hLM (%) [2] [%]	inhibition at 1 µM [3] [%]	IC50 [3] [µM]	microsomal CLint at […], 1 µM ([4]; pH 7.4, rat liver microsomes) [µL/min/mg]	half-life at 1 μM [4, 15] [min]	Rem. @ rLM (%) [4] [%]	microsomal CLint at […], 1 µM ([5]; pH 7.4, mouse liver microsomes) [µL/min/mg]	Rem. @ mLM (%) [5] [%]	IC50 [6] [µM]	IC50 [7] [µM]	IC50 [8] [µM]	IC50 [9] [µM]	IC50 [10] [µM]	IC50 [11] [µM]	AUC(0-inf) [12] [ng·h/mL]	AUC(0-t) [12] [ng·h/mL]	Cmax [12] [ng/mL]	further results
O=C(Nc1cnn(Cc2ccc(C(F)(F)F)cc2C(F)(F)F)c1)c1cc(-c2ccccn2)on1 [Compound 11, N-(1-(2,4-bis(trifluoromethyl)benzyl)-1H-pyrazol-4-yl)-5-(pyridin-2-yl)isoxazole-3-carboxamide]	9.41 (≈ 4.53 µg/mL)	67.5	21	73.5	> 50	< 1	44	31.3	44.8	55	40.8	9.85	1.09	> 50	> 50	16.9	7.77	10300	9780	2270	half-life at 1 μM [5, 16]: 25.3 min; Tmax [12]: 15 min; half-life [12]: 374 min; AUCExtr [%] [13]: 5.07%; F [%] [13]: 48.6%; Vz [13]: 8.74 L/kg; Last time point for AUClast [13]: 24 h
C[C@H](c1ccc(C(F)(F)F)cc1C(F)(F)F)n1cc(NC(=O)c2cc(-c3ccccn3)no2)cn1 [Compound 76, (R)—N-(1-(1-(2,4-bis(trifluoromethyl)phenyl)ethyl)-1H-pyrazol-4-yl)-3-(pyridin-2-yl)isoxazole-5-carboxamide]	7.03 (≈ 3.48 µg/mL)	57.6	24.1	69.7	> 50	< 1	34.7	–	59.4	19.3	74.9	3.6	1.14	7.54	> 50	6.45	6	45300	44100	5180	half-life at […], 1 µM [4, 15]: 39.9 min; half-life at […], 1 µM [5, 16]: 71.9 min; Tmax [12]: 60 min; half-life [12]: 272 min; AUCExtr [%] [13]: 2.55%; F [%] [13]: 50.6%; Vz [13]: 1.45 L/kg; Last time point for AUClast [13]: 24 h
Cc1nn([C@H](C)c2ccc(C(F)(F)F)cc2C(F)(F)F)cc1NC(=O)c1cc(-c2ccccn2)on1 [Compound 99, (R)—N-(1-(1-(2,4-bis(trifluoromethyl)phenyl)ethyl)-3-methyl-1H-pyrazol-4-yl)-5-(pyridin-2-yl)isoxazole-3-carboxamide]	2.34 (≈ 1.19 µg/mL)	–	39.2	49.2	25 to 50	1 to 10	28.3	49	60.9	85.2	29.2	8.8	1	32	> 50	4.8	2.5	–	–	–	half-life at 1 μM [2, 14]: 35.4 min; half-life at […], 1 µM [5, 16]: 16.3 min
